According to article PMC4569258:

Key:
[1] = target: T1, aryl hydrocarbon receptor (AhR) (Homo sapiens, UniProt P35869); assay: AhR gene reporter assay in AZ-AHR cells; settings: 24 h
T1 sequence (P35869 11-848): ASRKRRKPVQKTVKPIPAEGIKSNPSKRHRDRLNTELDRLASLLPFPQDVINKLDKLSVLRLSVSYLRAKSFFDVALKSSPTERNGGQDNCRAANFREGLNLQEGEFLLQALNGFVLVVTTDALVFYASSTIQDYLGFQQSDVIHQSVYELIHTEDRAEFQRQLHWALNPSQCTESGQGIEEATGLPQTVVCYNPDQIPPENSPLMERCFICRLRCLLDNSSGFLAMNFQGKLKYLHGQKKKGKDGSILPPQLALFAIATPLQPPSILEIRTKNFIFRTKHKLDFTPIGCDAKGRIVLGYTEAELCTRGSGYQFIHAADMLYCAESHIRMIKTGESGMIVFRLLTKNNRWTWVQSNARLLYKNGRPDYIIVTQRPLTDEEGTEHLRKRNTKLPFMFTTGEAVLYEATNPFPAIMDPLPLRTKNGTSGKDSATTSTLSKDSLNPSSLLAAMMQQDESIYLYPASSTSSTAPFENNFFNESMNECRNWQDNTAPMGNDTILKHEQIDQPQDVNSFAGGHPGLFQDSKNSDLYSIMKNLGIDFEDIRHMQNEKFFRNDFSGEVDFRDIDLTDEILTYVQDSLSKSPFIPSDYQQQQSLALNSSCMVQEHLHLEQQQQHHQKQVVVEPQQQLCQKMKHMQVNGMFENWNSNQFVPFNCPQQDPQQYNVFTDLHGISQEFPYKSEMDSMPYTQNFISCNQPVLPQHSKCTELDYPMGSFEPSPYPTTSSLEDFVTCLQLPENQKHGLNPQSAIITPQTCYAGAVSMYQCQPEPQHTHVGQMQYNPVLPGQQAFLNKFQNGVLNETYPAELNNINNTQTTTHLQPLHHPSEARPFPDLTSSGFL
Protocol: (§3) A stably transfected gene reporter cell line AZ-AHR, derived from human hepatoma HepG2 cells transfected with a construct containing several AhR binding sites upstream of a luciferase reporter gene, was used for assessment of AhR transcriptional activity [20].
(§4) Transcriptional activity of AhR was assessed in human gene reporter cell line AZ-AHR incubated for 24 h with tested compounds.
(§5) AZ-AHR cells were seeded in 96-well plates and stabilized for 16 h and then incubated for 24 h with enantiopure forms of atorvastatin, rosuvastatin and fluvastatin in concentration ranging from 10^−10 M to 10^−4 M in the absence (agonist mode–upper panels) or presence (antagonist mode–lower panels) of dioxin (TCDD; 5 nM). The vehicle was DMSO (0.1% v/v). After the treatments, cells were lysed and luciferase activity was measured. Treatments were performed in triplicates. Data are expressed as a fold induction of luciferase activity over control cells (agonist mode) or as a percentage of maximal activation attained by TCDD (antagonist mode). The values of EC50 and IC50 from n independent cell passages were calculated where appropriate and the average values are indicated in plots. Representative gene reporter assays are shown.

[2] = target: T1, aryl hydrocarbon receptor (AhR); assay: cell-based
Protocol: as §3, §4, §5

CYP2C9 = tested on: CYP2C9; set-up: method as in PMID 8737761; settings: ratio to (+)3R,5S-fluvastatin; cited from earlier work
[3] = target: T2, pregnane X receptor (PXR) (Homo sapiens, UniProt O75469); settings: 100 μM concentration, agonist mode
T2 sequence (O75469 1-434): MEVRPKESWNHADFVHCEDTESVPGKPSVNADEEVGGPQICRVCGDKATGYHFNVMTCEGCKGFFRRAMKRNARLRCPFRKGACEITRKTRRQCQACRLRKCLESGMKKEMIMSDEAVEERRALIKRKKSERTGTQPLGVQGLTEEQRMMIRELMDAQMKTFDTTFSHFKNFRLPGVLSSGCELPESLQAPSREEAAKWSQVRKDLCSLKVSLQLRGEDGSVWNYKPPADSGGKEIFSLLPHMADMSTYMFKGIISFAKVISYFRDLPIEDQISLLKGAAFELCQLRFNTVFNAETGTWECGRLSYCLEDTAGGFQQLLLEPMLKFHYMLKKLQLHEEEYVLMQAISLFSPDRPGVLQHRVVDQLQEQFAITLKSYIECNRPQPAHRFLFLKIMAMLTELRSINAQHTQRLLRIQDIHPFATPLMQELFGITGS

[4] = set-up: method as in PMID 19033449, PMID 16480934; settings: humans, ratio to (+)3R,5S-fluvastatin; cited from earlier work
[5] = MTT cytotoxicity test in LS180 cells; type: cell-based; settings: human, LS180 colon adenocarcinoma cells
Protocol: (§1) Prior to gene reporter assays, we examined the cytotoxicity of tested compounds in AZ-AHR, AZ-GR and LS180 cell lines. For this purpose, the cells were incubated for 24 h with individual enantiomers of atorvastatin, fluvastatin and rosuvastatin at concentrations ranging from 100 pM to 100 μM. The vehicle was DMSO (0.1% v/v). After the treatment, a conventional MTT test was performed and the values of IC50 were calculated.
(§2) Fig 2 Cytotoxicity of statin enantiomers in human cancer cell lines. […] After the treatment, a conventional MTT test was performed and absorbance was measured at 540 nm. Treatments were performed in triplicates.

[6] = MTT cytotoxicity test in AZ-AHR cells; type: cell-based; settings: human
Protocol: as §1, §2

[7] = MTT cytotoxicity test in AZ-GR cells; type: cell-based; settings: human, AZ-GR cells (HeLa-derived GR luciferase reporter cell line)
Protocol: as §1, §2

CC(C)n1c(C=CC(O)CC(O)CC(=O)O)c(-c2ccc(F)cc2)c2ccccc21 (stereo not drawn) [3S5R-fluvastatin, 3S5R- fluvastatin]
IC50 ([1]; AhR antagonist IC50, antagonist mode, in presence of TCDD 5 nM): > 100 µM
effect on AhR-dependent luciferase activity (agonist mode), in words ([1]; agonist mode): slightly increased luciferase activity
EC50 [2]: 14.4 ± 4.2 µM
Ki values of CYP2C9 inhibition compared to (+)3R,5S-fluvastatin (CYP2C9): four to five times higher
efficacy: average induction of PXR luciferase activity [3]: approx. 5 fold
AUC value compared to (+)3R,5S-fluvastatin [4]: 1.8 times
IC50 at 24 h [5]: > 100 µM
IC50 at 24 h [6]: > 100 µM
IC50 at 24 h [7]: > 100 µM
